Assay results: ChEMBL document CHEMBL1201862, “PubChem BioAssay data set” (2004)
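Compound exposure: 48 hours, 5 concentrations, 96-well plates. GI50 = concentration required for 50% inhibition of growth.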 The source made the active and inactive calls. Rule as the data show it: active = GI50 up to about 1.1 µM and inactive = higher.

Tests used:
Experiment in all cases: NCI anticancer screen, dose series, 48 h
SR = tested on: SR
UACC-62 = tested on: UACC-62
DU-145 = tested on: DU-145
MCF7 = tested on: MCF7
NCI-H522 = tested on: NCI-H522
Malme-3M = tested on: Malme-3M
A498 = tested on: A498
M14 = tested on: M14
MOLT-4 = tested on: MOLT-4
HCT-15 = tested on: HCT-15
NCI/ADR-RES = tested on: NCI/ADR-RES
SN12C = tested on: SN12C
T47D = tested on: T47D
LOX IMVI = tested on: LOX IMVI
MDA-MB-231 = tested on: MDA-MB-231
K562 = tested on: K562
A549 = tested on: A549
HOP-92 = tested on: HOP-92
NCI-H23 = tested on: NCI-H23
KM12 = tested on: KM12

Measured: GI50

Nc1nc(-c2ccc3ccccc3c2)cc(-c2cc(-c3ccc4ccccc4c3)nc(N)n2)n1
> 100 µM: HCT-15
inactive: SR > 100 µM | UACC-62 > 100 µM | DU-145 > 100 µM | MCF7 > 100 µM | NCI-H522 > 100 µM | Malme-3M > 100 µM | A498 > 100 µM | M14 > 100 µM | MOLT-4 > 100 µM | NCI/ADR-RES > 100 µM | SN12C > 100 µM | T47D > 100 µM | LOX IMVI > 100 µM | MDA-MB-231 > 100 µM | K562 > 100 µM | A549 > 100 µM | HOP-92 > 100 µM | NCI-H23 > 100 µM | KM12 > 100 µM

CCOC(=O)CCC(NC(=O)Cc1ccc(Nc2nc3cc(F)c(F)cc3nc2C(=O)OCC)cc1)C(=O)OCC (stereo not given)
> 100 µM: HCT-15
inactive: SR 27.5 µM | UACC-62 58.7 µM | DU-145 > 100 µM | MCF7 88.7 µM | NCI-H522 38.2 µM | Malme-3M 88.1 µM | A498 > 100 µM | M14 > 100 µM | MOLT-4 44.6 µM | NCI/ADR-RES > 100 µM | SN12C 69.2 µM | T47D 25.2 µM | LOX IMVI 44.4 µM | MDA-MB-231 41.8 µM | K562 37.2 µM | A549 > 100 µM | HOP-92 28.8 µM | NCI-H23 > 100 µM | KM12 > 100 µM

CC(C)c1cc(C(C)C)c(P2(=O)CC3C(Cl)(Cl)C3(C)C2)c(C(C)C)c1 (stereo not given)
9.53 µM: HCT-15
inactive: SR 1.74 µM | UACC-62 8.04 µM | DU-145 14.5 µM | MCF7 7.31 µM | NCI-H522 2.09 µM | Malme-3M 17.5 µM | A498 13.8 µM | M14 8.71 µM | MOLT-4 2.77 µM | NCI/ADR-RES 6.04 µM | SN12C 12.3 µM | T47D 6.44 µM | LOX IMVI 6.68 µM | MDA-MB-231 11.4 µM | K562 8.95 µM | A549 9.33 µM | HOP-92 12.2 µM | NCI-H23 9.55 µM | KM12 10.6 µM

CCOC(=O)c1cn2c(n1)sc1cc(Cl)cc(Cl)c12
inactive: SR > 100 µM | UACC-62 > 100 µM | DU-145 > 100 µM | MCF7 > 100 µM | NCI-H522 > 100 µM | Malme-3M > 100 µM | A498 > 100 µM | M14 > 100 µM | MOLT-4 > 100 µM | NCI/ADR-RES > 100 µM | SN12C > 100 µM | T47D > 100 µM | LOX IMVI > 100 µM | MDA-MB-231 > 100 µM | K562 > 100 µM | A549 > 100 µM | HOP-92 > 100 µM | NCI-H23 > 100 µM | KM12 > 100 µM
> 100 µM: HCT-15

O=C1O[C@H]2C3C4CCC(C4[C@@H]2I)[C@H]13 (stereo not given in full)
> 100 µM: HCT-15
inactive: SR > 100 µM | UACC-62 > 100 µM | DU-145 > 100 µM | MCF7 > 100 µM | NCI-H522 > 100 µM | Malme-3M > 100 µM | A498 > 100 µM | M14 > 100 µM | MOLT-4 > 100 µM | NCI/ADR-RES > 100 µM | SN12C > 100 µM | T47D > 100 µM | LOX IMVI > 100 µM | MDA-MB-231 > 100 µM | K562 > 100 µM | A549 > 100 µM | HOP-92 > 100 µM | NCI-H23 > 100 µM | KM12 > 100 µM

CC(C)(C)[C@H]1NC(=O)CN1C(=O)OCc1ccccc1
inactive: SR 20 µM | UACC-62 > 100 µM | DU-145 > 100 µM | MCF7 > 100 µM | NCI-H522 > 100 µM | Malme-3M > 100 µM | A498 10.7 µM | M14 > 100 µM | MOLT-4 > 100 µM | NCI/ADR-RES > 100 µM | SN12C > 100 µM | T47D 60.8 µM | LOX IMVI 43.6 µM | MDA-MB-231 35.5 µM | K562 66.7 µM | A549 > 100 µM | HOP-92 5.12 µM | NCI-H23 > 100 µM | KM12 > 100 µM
> 100 µM: HCT-15

Cc1cc2ccccc2c[n+]1CC(O)C[n+]1cc2ccccc2cc1C
> 100 µM: HCT-15
inactive: SR > 100 µM | UACC-62 > 100 µM | DU-145 > 100 µM | MCF7 > 100 µM | NCI-H522 > 100 µM | Malme-3M > 100 µM | A498 > 100 µM | M14 > 100 µM | MOLT-4 > 100 µM | NCI/ADR-RES > 100 µM | SN12C > 100 µM | T47D > 100 µM | LOX IMVI > 100 µM | MDA-MB-231 > 100 µM | K562 > 100 µM | A549 > 100 µM | HOP-92 > 100 µM | NCI-H23 > 100 µM | KM12 > 100 µM

COc1nc(C(Cl)(Cl)Cl)c(Cl)c(OC)c1Cl [PENCLOMEDINE]
inactive: SR 37.1 µM | UACC-62 22.4 µM | DU-145 38.7 µM | MCF7 17.7 µM | NCI-H522 33.1 µM | Malme-3M 31.2 µM | A498 52.6 µM | M14 40 µM | MOLT-4 19.4 µM | NCI/ADR-RES 24.3 µM | SN12C 39 µM | T47D 37.4 µM | LOX IMVI 29 µM | MDA-MB-231 38.3 µM | K562 26.4 µM | A549 40.5 µM | HOP-92 28.2 µM | NCI-H23 42.2 µM | KM12 33.7 µM
40.6 µM: HCT-15
